The values that follow are results of earlier work, collected in patent publication US12048727B2, “Synergistic formulation against acne and a process for the preparation thereof” (COUNCIL OF SCIENTIFIC & INDUSTRIAL RESEARCH, priority 2019, dated 2024).

The data set relates to P. acnes strains. The settings on record: Indian population.

`CC[C@H]1OC(=O)[C@H](C)[C@@H](O[C@H]2C[C@@](C)(OC)[C@@H](O)[C@H](C)O2)[C@H](C)[C@@H](O[C@@H]2O[C@H](C)C[C@H](N(C)C)[C@H]2O)[C@](C)(O)C[C@@H](C)CN(C)[C@H](C)[C@@H](O)[C@]1(C)O` [azithromycin]: the resistance of antibiotics is recorded as 100%.

Turning to `CC[C@H]1OC(=O)[C@H](C)[C@@H](O[C@H]2C[C@@](C)(OC)[C@@H](O)[C@H](C)O2)[C@H](C)[C@@H](O[C@@H]2O[C@H](C)C[C@H](N(C)C)[C@H]2O)[C@](C)(O)C[C@@H](C)C(=O)[C@H](C)[C@@H](O)[C@]1(C)O` [erythromycin], the resistance of antibiotics is given as 98%.
